Consider two compounds from patent US20240423950A1, “5-MAPB OR 6-APB FOR USE IN DRUG-ASSISTED PSYCHOTHERAPY” (CLEARMIND MEDICINE INC., priority 2021, published 2024).

For data set [1] the following is noted: animal models, after oral ingestion; cited from earlier work.
The test system of data set [2] is human subjects. The data set can be described thus: Drug-assisted psychotherapy in individuals for whom MDMA therapy is ineffective. It is filed as in vivo. The source says:
Inter alia, 5-MAPB or 6-APB-assisted psychotherapy is effective in post-traumatic stress disorder (PTSD) therapy, couple's therapy, and therapy for anxiety disorders.

`CNC(C)Cc1ccc2occc2c1` (stereo not shown) [5-MAPB, 1-(Benzofuran-5-yl)-N-methylpropan-2-amine]: the apparent plasma half-life result in data set [1] is reported as “approximately 1 hour”. The “therapeutic efficacy in the psychotherapeutic context” value in data set [2] was “significant enhancement of therapeutic efficacy”.

Take `CC(N)Cc1ccc2ccoc2c1` (stereo not shown) [6-APB, 1-Benzofuran-6-yl propan-2-amine]: the apparent plasma half-life result in data set [1] is given as “approximately 1 hour”. The “therapeutic efficacy in the psychotherapeutic context” value in data set [2] is reported as “significant enhancement of therapeutic efficacy”.
